Counter-ions that a name gives are not always drawn. Like-named read-outs stand apart in the source and are kept apart here.
How the values were obtained:
786-O [1] = assay: Cytotoxicity in vitro in the presence and absence of elastase (MTT); assay type: cell-based, human
Description: (§1) Cultivation of cells was performed according to standard procedures with the media recommended by the provider. The cells, in a total volume of 100 μL, were seeded in a 96-well plate with a white bottom (#3610). After a 24 h incubation period at 37° C. and […], the medium was exchanged by adding 90 μL fresh medium. The treatment started by adding the test compound in 10 μL of culture medium to the cells in triplicates. Concentrations ranging from 10^−5 M to 10^−13 M were chosen. Two identically treated sets of samples were prepared. One set was treated with the test compound alone, whereas to the second set the compound and 10 nM elastase was added followed by a 72 h incubation period at 37° C. and 5% CO2. The proliferation was detected using the MTT assay (ATCC). At the end of the incubation period the MTT reagent was added to all samples for 4 h. Lysis of the cells followed by addition of the detergent was done overnight. The formed dye was detected at 570 nm. The proliferation of untreated but otherwise identically handled cells was define as the […].

HT29 [2] = assay: as above; assay type: cell-based, human
Description: as §1

NCI H292 [3] = assay: as above; assay type: cell-based, human
Description: as §1

SUM149 [4] = assay: as above; assay type: cell-based
Description: as §1

786-O [5] = assay: Cytotoxicity assay (Version 2), automated, AC50, with or without elastase; assay type: cell-based, human
Description: as §1
(§2) The Cytotoxicity assay (Version 2) was performed as above described. Some changes were applied as the assays were performed in an automated fashion and the IC50 values determination was changed. Here the change in metabolic activity of the cells, in percent, was calculated by normalization of the measured values to the absorbance values of medium containing wells without cells (=−100%) and the absorbance of the DMSO-treated cells (=0%). AC50 values (activity concentration at −50%) were determined by means of a 4 parameter Hill-fit using GeneData Screener software.

HT29 [6] = assay: as above; assay type: cell-based, human
Description: as §1, §2

NCI H292 [7] = assay: as above; assay type: cell-based, human
Description: as §1, §2

SUM149 [8] = assay: as above; assay type: cell-based
Description: as §1, §2

[9] = 786-O cells, Version 2, with elastase, activity concentration at −50%, read-out: 786-O AC50 +elastase
[10] = 786-O cells, Version 2, without elastase, activity concentration at −50%, read-out: 786-O AC50 −elastase
[11] = HT29 cells, Version 2, with elastase, activity concentration at −50%, read-out: HT29 AC50 +elastase
[12] = HT29 cells, Version 2, without elastase, activity concentration at −50%, read-out: HT29 AC50 −elastase
[13] = NCI H292 cells, Version 2, with elastase, activity concentration at −50%, read-out: NCI H292 AC50 +elastase
[14] = NCI H292 cells, Version 2, without elastase, activity concentration at −50%, read-out: NCI H292 AC50 −elastase
[15] = SUM149 cells, Version 2, with elastase, activity concentration at −50%, read-out: SUM149 AC50 +elastase
[16] = SUM149 cells, Version 2, without elastase, activity concentration at −50%, read-out: SUM149 AC50 −elastase
[17] = read-out: NCI H292 AC50 +elastase
[18] = read-out: NCI H292 AC50 −elastase
[19] = read-out: SUM149 AC50 +elastase
[20] = read-out: SUM149 AC50 −elastase

Row | Compound | AC50 (786-O [5]; [9]) [nM] | AC50 (786-O [5]; [10]) [nM] | AC50 (HT29 [6]; [11]) [nM] | AC50 (HT29 [6]; [12]) [nM] | AC50 (NCI H292 [7]; [13]) [nM] | AC50 (NCI H292 [7]; [14]) [nM] | AC50 (SUM149 [8]; [15]) [nM] | AC50 (SUM149 [8]; [16]) [nM] | AC50 (786-O [5]; read-out: 786-O AC50 +elastase) [nM] | AC50 (786-O [5]; read-out: 786-O AC50 −elastase) [nM] | AC50 (HT29 [6]; read-out: HT29 AC50 +elastase) [nM] | AC50 (HT29 [6]; read-out: HT29 AC50 −elastase) [nM] | AC50 (NCI H292 [7]; [17]) [nM] | AC50 (NCI H292 [7]; [18]) [nM] | AC50 (SUM149 [8]; [19]) [nM] | AC50 (SUM149 [8]; [20]) [nM] | other results
1 | CCCNC(=O)Nc1cccc(S(=O)(=O)Nc2cccc([C@@H](CC(=O)O)NC(=O)Nc3ccc(NC(=O)NCCOCCOCCOCCC(=O)N[C@@H](CC(=O)O)C(=O)N4CCC[C@H]4C(=O)N[C@H](C(=O)O[C@]4(CC)C(=O)OCc5c4cc4n(c5=O)Cc5c-4nc4cc(F)c(C)c6c4c5[C@@H](N)CC6)C(C)C)cc3)c2)c1 [Compound 4b, disodium (1S,9S)-1-amino-9-ethyl-5-fluoro-4-methyl-10,13-dioxo-2,3,9,10,13,15-hexahydro-1H,12H-benzo[de]pyrano[3′,4′:6,7]indolizino[1,2-b]quinolin-9-yl 1-{(2S)-2-(carboxylatomethyl)-17-[4-({[(1R)-2-carboxylato-1-{3-[({3-[(propylcarbamoyl)amino]phenyl}sulfonyl)amino]phenyl}ethyl]carbamoyl}amino)anilino]-4,17-dioxo-7,10,13-trioxa-3,16-diazaheptadecan-1-oyl}-L-prolyl-L-valinate] | 1.1 to 10 | > 100 | 1.1 to 10 | > 100 | 1.1 to 10 | > 100 | < 1 | 11 to 100 |  |  |  |  |  |  |  |  | IC50 (786-O [1]; 786-O cells, with 10 nM elastase, 72 h, MTT, read-out: 786-O IC50 w elastase): 0.01 to 0.1 nM; IC50 (786-O [1]; 786-O cells, without elastase, 72 h, MTT, read-out: 786-O IC50 w/o): 10 to 100 nM; IC50 (HT29 [2]; HT29 cells, with 10 nM elastase, 72 h, MTT, read-out: HT29 IC50 w elastase): 0.1 to 1 nM; IC50 (HT29 [2]; HT29 cells, without elastase, 72 h, MTT, read-out: HT29 IC50 w/o): 10 to 100 nM; IC50 (NCI H292 [3]; NCI H292 cells, with 10 nM elastase, 72 h, MTT, read-out: NCI H292 IC 50 w elastase): 0.01 to 0.1 nM; IC50 (NCI H292 [3]; NCI H292 cells, without elastase, 72 h, MTT, read-out: NCI H292 IC 50 w/o): 1.1 to 10 nM; IC50 (SUM149 [4]; SUM149 cells, with 10 nM elastase, 72 h, MTT, read-out: SUM149 IC50 w elastase): < 0.01 nM; IC50 (SUM149 [4]; SUM149 cells, without elastase, 72 h, MTT, read-out: SUM149 IC50 w/o): 1.1 to 10 nM
2 | CCCNC(=O)Nc1cccc(S(=O)(=O)Nc2cccc([C@@H](CC(=O)O)NC(=O)Nc3ccc(NC(=O)NCCOCCOCCOCCC(=O)N[C@@H](CC(=O)O)C(=O)N4CCC[C@H]4C(=O)N[C@H](C(=O)O[C@]4(CC)C(=O)OCc5c4cc4n(c5=O)Cc5cc6cc7c(cc6nc5-4)OCO7)C(C)C)cc3)c2)c1 [Compound 5, (7S)-7-ethyl-8,11-dioxo-7,8,11,13-tetrahydro-2H,10H-[1,3]dioxolo[4,5-g]pyrano [3′,4′:6,7]indolizino[1,2-b]quinolin-7-yl N-(14-{4-[({(1R)-2-carboxy-1-[3-({3-[(propylcarbamoyl)amino]benzene-1-sulfonyl}amino)phenyl]ethyl}carbamoyl)amino]anilino}-14-oxo-4,7,10-trioxa-13-azatetradecanan-1-oyl)-L-alpha-aspartyl-L-prolyl-L-valinate-bis sodium salt] |  |  |  |  |  |  |  |  | 1.1 to 10 | > 100 | 1.1 to 10 | > 100 | < 1 | > 100 | < 1 | 11 to 100 | IC50 (786-O [1]; read-out: 786-O IC50 w elastase): < 0.01 nM; IC50 (786-O [1]; read-out: 786-O IC50 w/o): 1.1 to 10 nM; IC50 (HT29 [2]; read-out: HT29 IC50 w elastase): < 0.01 nM; IC50 (HT29 [2]; read-out: HT29 IC50 w/o): 10 to 100 nM; IC50 (NCI H292 [3]; read-out: NCI H292 IC 50 w elastase): < 0.01 nM; IC50 (NCI H292 [3]; read-out: NCI H292 IC 50 w/o): 1.1 to 10 nM; IC50 (SUM149 [4]; read-out: SUM149 IC50 w elastase): < 0.01 nM; IC50 (SUM149 [4]; read-out: SUM149 IC50 w/o): 1.1 to 10 nM
3 | CCCNC(=O)Nc1cccc(S(=O)(=O)Nc2cccc([C@@H](CC(=O)O)NC(=O)Nc3ccc(NC(=O)NCCOCCOCCOCCC(=O)N[C@@H](CC(=O)O)C(=O)N4CCC[C@H]4C(=O)N[C@H](C(=O)O[C@]4(CC)C(=O)OCc5c4cc4n(c5=O)Cc5c-4nc4cc(F)c(C)c6c4c5[C@@H](N(C)C)CC6)C(C)C)cc3)c2)c1 [Compound 20, (1S,9S)-1-(dimethylamino)-9-ethyl-5-fluoro-4-methyl-10,13-dioxo-2,3,9,10,13,15-hexahydro-1H,12H-benzo[de]pyrano[3′,4′:6,7]indolizino[1,2-b]quinolin-9-yl N-(14-{4-[({(1R)-2-carboxy-1-[3-({3-[(propylcarbamoyl)amino]benzene-1-sulfonyl}amino)phenyl]ethyl}carbamoyl)amino]anilino}-14-oxo-4,7,10-trioxa-13-azatetradecanan-1-oyl)-L-alpha-aspartyl-L-prolyl-L-valinate] | 1.1 to 10 | > 100 | 11 to 100 | > 100 | 1.1 to 10 | > 100 | 1.1 to 10 | > 100 |  |  |  |  |  |  |  |  | 
4 | CCCNC(=O)Nc1cccc(S(=O)(=O)Nc2cccc([C@@H](CC(=O)O)NC(=O)Nc3ccc(NC(=O)NCCOCCOCCOCCC(=O)NCCCC[C@H](NC(=O)CCOCCOCCOCCNC(=O)Nc4ccc(NC(=O)N[C@H](CC(=O)O)c5cccc(NS(=O)(=O)c6cccc(NC(=O)NCCC)c6)c5)cc4)C(=O)NCCOCCOCCOCCC(=O)N[C@@H](CC(=O)O)C(=O)N4CCC[C@H]4C(=O)N[C@H](C(=O)O[C@]4(CC)C(=O)OCc5c4cc4n(c5=O)Cc5cc6cc7c(cc6nc5-4)OCO7)C(C)C)cc3)c2)c1 [Compound 22] |  |  |  |  |  |  |  |  | < 1 | > 100 | 1.1 to 10 | > 100 | < 1 | 1.1 to 10 | < 1 | 11 to 100 | 
5 | CCCNC(=O)Nc1cccc(S(=O)(=O)Nc2cccc([C@@H](CC(=O)O)NC(=O)Nc3ccc(NC(=O)NCCOCCOCCOCCC(=O)NCCCC[C@H](NC(=O)CCOCCOCCOCCNC(=O)Nc4ccc(NC(=O)N[C@H](CC(=O)O)c5cccc(NS(=O)(=O)c6cccc(NC(=O)NCCC)c6)c5)cc4)C(=O)NCCOCCOCCOCCC(=O)N[C@@H](CC(=O)O)C(=O)N4CCC[C@H]4C(=O)N[C@H](C(=O)O[C@]4(CC)C(=O)OCc5c4cc4n(c5=O)Cc5c-4nc4cc(F)c(C)c6c4c5[C@@H](NC(C)=O)CC6)C(C)C)cc3)c2)c1 [Compound 24] |  |  |  |  |  |  |  |  | 1.1 to 10 | > 100 | 11 to 100 | > 100 | 1.1 to 10 | > 100 | 1.1 to 10 | 11 to 100 | 

— US20250032477A1, “COMPOUNDS, PHARMACEUTICAL COMPOSITIONS, AND METHODS FOR THE TREATMENT, PREVENTION, OR MANAGEMENT OF HYPERPROLIFERATIVE DISORDERS” (VINCERX PHARMA GMBH, priority 2021, published 2025)
